The values that follow come from ChEMBL document CHEMBL1127868, “Synthesis and In Vitro evaluation of fused ring heterocyle-containing angiotensin II antagonists” (Bioorg Med Chem Lett, 1994).

Experiment [1] deals with T1, Type-1 angiotensin II receptor (Oryctolagus cuniculus, UniProt P34976).
T1 sequence (P34976 whole entry): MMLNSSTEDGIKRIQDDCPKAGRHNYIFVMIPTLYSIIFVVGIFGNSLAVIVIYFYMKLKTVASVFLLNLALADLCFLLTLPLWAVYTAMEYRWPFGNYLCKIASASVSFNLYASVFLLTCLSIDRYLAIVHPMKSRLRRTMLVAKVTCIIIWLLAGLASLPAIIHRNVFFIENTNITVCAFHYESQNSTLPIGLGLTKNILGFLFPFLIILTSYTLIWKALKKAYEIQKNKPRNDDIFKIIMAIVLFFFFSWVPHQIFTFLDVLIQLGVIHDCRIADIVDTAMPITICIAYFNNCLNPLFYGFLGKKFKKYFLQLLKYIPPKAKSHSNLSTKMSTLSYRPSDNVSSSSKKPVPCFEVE
The experiment can be described thus: pA2 value determined in vitro against angiotensin II receptor, type 1 using rabbit aortic rings. The settings on record: read-out: pA2 (converted).

The next experiment concerns Rattus norvegicus. Kind of experiment: Dose (po) required to normalize blood pressure in renal artery-ligated rats. It is filed as functional.

Consider `CCCCN(Cc1ccc(-c2ccccc2-c2nn[nH]n2)cc1)c1ncnc2c1nc(C)n2C`, for which the Kb in experiment [1] was 9.33 nM.
`CCCCN(Cc1ccc(-c2ccccc2-c2nn[nH]n2)cc1)c1ncnc2c1nc(C#N)n2C`: in experiment [1], the Kb is 72.4 nM.
For `CCCCN(Cc1ccc(-c2ccccc2-c2nn[nH]n2)cc1)c1ncnc2c1nc(S(C)(=O)=O)n2C`, the Kb in experiment [1] is over 100 nM.
Regarding `CCc1nc(NCc2ccc(-c3ccccc3-c3nn[nH]n3)cc2)c2cc(OC)ccc2n1`, in experiment [1], the Kb was 2.63 nM.
Take `CCCCN(Cc1ccc(-c2ccccc2-c2nn[nH]n2)cc1)c1ncnc2c1ncn2C`: in experiment [1], the Kb was 8.32 nM.
Same read-out and setting: the same measure for `CCCCN(Cc1ccc(-c2ccccc2-c2nn[nH]n2)cc1)c1ncnc2c1nc(O)n2C`: 29.5 nM; for `CCCCN(Cc1ccc(-c2ccccc2-c2nn[nH]n2)cc1)c1ncnc2c1nnn2C`: 10.7 nM.
On to `CCCN(Cc1ccc(-c2ccccc2-c2nn[nH]n2)cc1)c1ncccc1C(=O)O`, for which, in experiment [1], the Kb is 0.0501 nM. This compound also returned a Dose with Rattus norvegicus of 0.3 mg/kg.
As to `CCCCN(Cc1ccc(-c2ccccc2-c2nn[nH]n2)cc1)c1ncnc2ccc(O)cc12`, the Kb in experiment [1] is 87.1 nM.
The same measure, in the same setting: the same measure for `CCCN(Cc1ccc(-c2ccccc2-c2nnn[nH]2)cc1)c1ncnc2cccc(C(=O)OC)c12`: over 100 nM; for `CCCN(Cc1ccc(-c2ccccc2-c2nn[nH]n2)cc1)c1ncnc2oc(C)nc12`: 97.7 nM.
As to `CCCCN(Cc1ccc(-c2ccccc2-c2nnn[nH]2)cc1)c1ncnc2cc(C(=O)O)ccc12`, in experiment [1], the Kb was 35.5 nM.
For `CCCCN(Cc1ccc(-c2ccccc2-c2nnn[nH]2)cc1)c1ncnc2nc[nH]c12`, the Kb in experiment [1] was 6.76 nM.
Regarding `CCCN(Cc1ccc(-c2ccccc2-c2nnn[nH]2)cc1)c1ncnc2[nH]cnc12`, the Kb in experiment [1] was 12 nM.
Still for that read-out and setting: the same measure for `CCCN(Cc1ccc(-c2ccccc2-c2nnn[nH]2)cc1)c1ncnc2c1ncn2CC(=O)O`: 7.24 nM; for `CCCCN(Cc1ccc(-c2ccccc2-c2nnn[nH]2)cc1)c1ncnc2nccnc12`: 115 nM.
As for `CCCN(Cc1ccc(-c2ccccc2-c2nn[nH]n2)cc1)c1ncnc2ncn(C)c12`, the Kb in experiment [1] was 933 nM.
On to `CCc1nc(NCc2ccc(-c3ccccc3-c3nn[nH]n3)cc2)c2ccccc2n1`, for which the Kb in experiment [1] was 2.95 nM.
The same measure, in the same setting: the same measure for `CCCN(Cc1ccc(-c2ccccc2-c2nn[nH]n2)cc1)c1[nH]cnc2nncc1-2`: 339 nM; for `CCCN(Cc1ccc(-c2ccccc2-c2nn[nH]n2)cc1)c1ncnc2cccc(OC)c12`: over 100 nM; for `CCCCN(Cc1ccc(-c2ccccc2-c2nnn[nH]2)cc1)c1ncnc2c1nc(C(N)=O)n2C`: over 100 nM.
Still for that read-out and setting: next, `CCCCN(Cc1ccc(-c2ccccc2-c2nn[nH]n2)cc1)c1ncnc2ccc(C(=O)O)nc12`: 6.46 nM; `CCCCN(Cc1ccc(-c2ccccc2-c2nn[nH]n2)cc1)c1ncnc2ccc(C(=O)OC)cc12`: 107 nM; `CCCN(Cc1ccc(-c2ccccc2-c2nn[nH]n2)cc1)c1ncnc2c1ncn2Cc1ccccc1`: 151 nM.
On the same count and under the same terms, next, `CCCN(Cc1ccc(-c2ccccc2-c2nn[nH]n2)cc1)c1ncncc1C(=O)O`: 0.117 nM; `CCc1nc(NCc2ccc(-c3ccccc3-c3nnn[nH]3)cc2)c2ncn(C)c2n1`: 5.13 nM.
Take `CCc1nc(N(C)Cc2ccc(-c3ccccc3-c3nn[nH]n3)cc2)c2cc(OC)ccc2n1`: the Kb in experiment [1] was 47.9 nM.
Same read-out and setting: next, `CCc1nc(NCc2ccc(-c3ccccc3-c3nn[nH]n3)cc2)c2c[nH]nc2n1`: 138 nM; `CCc1nc(NCc2ccc(-c3ccccc3-c3nn[nH]n3)cc2)c2cc(C(=O)O)ccc2n1`: 2.57 nM; `CCCCN(Cc1ccc(-c2ccccc2-c2nnn[nH]2)cc1)c1ncnc2ccc(C(=O)O)cc12`: 9.55 nM.
On the same count and under the same terms, the same measure for `CCCCN(Cc1ccc(-c2ccccc2-c2nnn[nH]2)cc1)c1ncnc2cccnc12`: 776 nM; for `CCCCN(Cc1ccc(-c2ccccc2-c2nnn[nH]2)cc1)c1ncnc2ccc(OC)cc12`: 47.9 nM; for `CCCN(Cc1ccc(-c2ccccc2-c2nnn[nH]2)cc1)c1ncnc2ncn(CC(=O)O)c12`: 74.1 nM.
As for `CCCCN(Cc1ccc(-c2ccccc2-c2nnn[nH]2)cc1)c1ncnc2c1nc(CC)n2C`, in experiment [1], the Kb was 30.2 nM.
For `CCc1nc(NCc2ccc(-c3ccccc3-c3nnn[nH]3)cc2)c2c(OC)cccc2n1`, the Kb in experiment [1] was 8.51 nM.
In the case of `CCCCN(Cc1ccc(-c2ccccc2-c2nnn[nH]2)cc1)c1ncnc2c1nc(-c1ccccc1)n2C`, in experiment [1], the Kb was over 100 nM.
Still for that read-out and setting: next, `CCCCN(Cc1ccc(-c2ccccc2-c2nn[nH]n2)cc1)c1ncnc2c1nc([S+](C)[O-])n2C` (stereo not given): 41.7 nM.
Regarding `CCCCN(Cc1ccc(-c2ccccc2-c2nn[nH]n2)cc1)c1[nH]cnc2nc(C)nc1-2`, the Kb in experiment [1] is 7.76 nM.
Turning to `CCCN(Cc1ccc(-c2ccccc2-c2nnn[nH]2)cc1)c1ncnc2cccc(C(=O)O)c12`, the Kb in experiment [1] is over 100 nM.
